Assay results reported in patent publication US11884676B2, “Substituted pyrimido[1,2-b]pyridazines as positive allosteric modulators of the muscarinic acetylcholine receptor M4” (Vanderbilt University, priority 2020, dated 2024).

Molecular target: T1, Human M4 (Homo sapiens, UniProt P08173)
T1 construct: expressed in transfected cells
T1 sequence (P08173 1-479): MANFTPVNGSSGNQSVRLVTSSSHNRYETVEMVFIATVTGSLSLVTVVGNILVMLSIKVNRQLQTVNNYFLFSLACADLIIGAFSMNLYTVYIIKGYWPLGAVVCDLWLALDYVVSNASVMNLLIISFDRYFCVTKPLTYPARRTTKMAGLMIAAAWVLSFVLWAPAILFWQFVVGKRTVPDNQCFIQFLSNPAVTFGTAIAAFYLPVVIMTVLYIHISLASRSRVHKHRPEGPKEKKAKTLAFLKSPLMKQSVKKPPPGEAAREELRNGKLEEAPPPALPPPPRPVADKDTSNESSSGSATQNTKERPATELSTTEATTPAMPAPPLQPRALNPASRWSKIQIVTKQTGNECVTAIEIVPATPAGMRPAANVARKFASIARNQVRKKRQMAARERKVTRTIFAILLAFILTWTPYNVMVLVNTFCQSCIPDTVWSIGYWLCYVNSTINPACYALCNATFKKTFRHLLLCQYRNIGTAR
Test: mAChR M4 cell-based functional assay (calcium flux, PAM mode)
Details: hM4-Gqi5 CHO-K1 cells; for Emax at 30 µM: CHO-K1, % ACh maximum at 30 μM; for EC50: concentration-dependent increase in the EC20 acetylcholine response
Method: Human and rat M4 cDNAs, along with the chimeric G protein Gqi5, were transfected into Chinese hamster ovary (CHO-K1) cells purchased from the American Type Culture Collection using Lipofectamine2000. hM4-Gqi5 cells were grown in Ham's F-12 medium containing 10% heat-inactivated fetal bovine serum (FBS), 20 mM HEPES, 50 μg/mL G418 sulfate, and 500 μg/mL Hygromycin B. rM4-Gqi5 cells were grown in DMEM containing 10% heat-inactivated FBS, 20 mM HEPES, 400 μg/mL G418 sulfate, and 500 μg/mL Hygromycin B.
For high throughput measurement of agonist-evoked increases in intracellular calcium, CHO-K1 cells stably expressing muscarinic receptors were plated in growth medium lacking G418 and hygromycin at 15,000 cells/20 μL/well in Greiner 384-well black-walled, tissue culture (TC)-treated, clear-bottom plates (VWR). Cells were incubated overnight at 37° C. and 5% CO2. The next day, cells were washed using an ELX 405 (BioTek) with assay buffer; the final volume was then aspirated to 20 μL. Next, 20 μL of a 2.3 μM stock of Fluo-4/acetoxymethyl ester (Invitrogen, Carlsbad, CA), prepared as a 2.3 mM stock in DMSO and mixed in a 1:1 ratio with 10% (w/v) Pluronic F-127 and diluted in assay buffer, was added to the wells and the cell plates were incubated for 50 min at 37° C. and 5% CO2. Dye was removed by washing with the ELX 405 and the final volume was aspirated to 20 μL. Compound master plates were formatted in an 11 point concentration-response curve (CRC) format (1:3 dilutions) in 100% DMSO with a starting concentration of 10 mM using a BRAVO liquid handler (Agilent). Test compound CRCs were then transferred to daughter plates (240 nL) using the Echo acoustic plate reformatter (Labcyte, Sunnyvale, CA) and then diluted into assay buffer (40 μL) to a 2× stock using a Thermo Fisher Combi (Thermo Fisher Scientific, Waltham, MA).
Calcium flux was measured using the Functional Drug Screening System (FDSS) 6000 or 7000 (Hamamatsu Corporation, Tokyo, Japan) as an increase in the fluorescent static ratio. Compounds were applied to cells (20 μL, 2×) using the automated system of the FDSS at 2-4 seconds into the protocol and the data were collected at 1 Hz. At 144 seconds, 10 μL of an EC20 concentration of the muscarinic receptor agonist acetylcholine was added (5×), followed by the addition of 12 μL of an EC80 concentration of acetylcholine at the 230 second time point (5×). Agonist activity was analyzed as a concentration-dependent increase in calcium mobilization upon compound addition. Positive allosteric modulator activity was analyzed as a concentration-dependent increase in the EC20 acetylcholine response. Antagonist activity was analyzed as a concentration-dependent decrease in the EC80 acetylcholine response. Concentration-response curves were generated using a four-parameter logistical equation in XLFit curve fitting software (IDBS, Bridgewater, NJ) for Excel (Microsoft, Redmond, WA) or Prism (GraphPad Software, Inc., San Diego, CA).
Compounds were synthesized as described above. Activity (EC50 and Emax) was determined in the mAChR M4 cell-based functional assay as described above and the data are shown in Table 2. The compound number corresponds to the compound numbers used in Examples 1 to 11 and Tables 1.

Structure (SMILES) | Emax at 30 µM | EC50
CCc1cc(=O)n2nc(N3CCC(Oc4ccc5c(c4)OCCO5)CC3)c(C)c(C)c2n1 [Compound 11, 7-(4-((2,3-Dihydrobenzo[b][1,4]dioxin-6-yl-2,2,3,3-d4)oxy)piperidin-1-yl)-2-ethyl-8,9-dimethyl-4H-pyrimido[1,2-b]pyridazin-4-one] | 99% | 49 nM
[2H]C1([2H])Oc2ccc(OC3CCN(c4nn5c(=O)c(F)c(C)nc5cc4C)CC3)cc2OC1([2H])[2H] [Compound 15, 7-(4-((2,3-Dihydrobenzo[b][1,4]dioxin-6-yl-2,2,3,3-d4)oxy)piperidin-1-yl)-3-fluoro-2,8-dimethyl-4H-pyrimido[1,2-b]pyridazin-4-one] | 80% | 20 nM
CNc1c(C)c(N2CCC(Oc3ccc4c(c3)OCCO4)CC2)nn2c(=O)ccnc12 [Compound 123, 7-(4-((2,3-dihydrobenzo[b][1,4]dioxin-6-yl)oxy)piperidin-1-yl)-8-methyl-9-(methylamino)-4H-pyrimido[1,2-b]pyridazin-4-one] | 89% | 556 nM
Cc1ccc(OC2CCN(c3nn4c(=O)ccnc4c(C)c3C)CC2)cn1 [Compound 86, 8,9-dimethyl-7-(4-((6-methylpyridin-3-yl)oxy)piperidin-1-yl)-4H-pyrimido[1,2-b]pyridazin-4-one] | 101% | 341 nM
Cc1cc2nccc(=O)n2nc1N1CC[C@H](Oc2ccc3c(c2)OCCO3)[C@H](F)C1 [Compound 43, 7-((3R,4S)-4-((2,3-dihydrobenzo[b][1,4]dioxin-6-yl)oxy)-3-fluoropiperidin-1-yl)-8-methyl-4H-pyrimido[1,2-b]pyridazin-4-one] | 69% | 171 nM
COc1c(C)c(N2CCC(Oc3ccc4c(c3)OCCO4)CC2)nn2c(=O)ccnc12 [Compound 126, 7-(4-((2,3-Dihydrobenzo[b][1,4]dioxin-6-yl)oxy)piperidin-1-yl)-9-methoxy-8-methyl-4H-pyrimido[1,2-b]pyridazin-4-one] | 109% | 421 nM
[2H]C1([2H])Oc2ccc(OC3CCN(c4nn5c(=O)c(C)c(C)nc5cc4C)CC3)cc2OC1([2H])[2H] [Compound 4, 7-(4-((2,3-Dihydrobenzo[b][1,4]dioxin-6-yl-2,2,3,3-d4)oxy)piperidin-1-yl)-2,3,8-trimethyl-4H-pyrimido[1,2-b]pyridazin-4-one] | 90% | 36 nM
Cc1cc2nccc(=O)n2nc1N1CC[C@H](Oc2cc(F)c3c(c2)OCCO3)C[C@H]1C [Compound 131, 7-((2R,4S)-4-((8-fluoro-2,3-dihydrobenzo[b][1,4]dioxin-6-yl)oxy)-2-methylpiperidin-1-yl)-8-methyl-4H-pyrimido[1,2-b]pyridazin-4-one] | 119% | 203 nM
[2H]C1(Oc2ccc3c(c2)OCCCO3)CCN(c2nn3c(=O)cc(C(F)F)nc3cc2C)CC1 [Compound 67, 2-(difluoromethyl)-7-(4-((3,4-dihydro-2H-benzo[b][1,4]dioxepin-7-yl)oxy)piperidin-1-yl-4-d)-8-methyl-4H-pyrimido[1,2-b]pyridazin-4-one] | 109% | 17 nM

Now from value to compound:

Emax at 30 µM | EC50 | Structure (SMILES)
115% | 34 nM | [2H]C1([2H])Oc2ccc(O[C@@H]3CCN(c4nn5c(=O)ccnc5c(C)c4C)C[C@@H]3F)cc2OC1([2H])[2H] [Compound 118, 7-((3S,4R)-4-((2,3-dihydrobenzo[b][1,4]dioxin-6-yl-2,2,3,3-d4)oxy)-3-fluoropiperidin-1-yl)-8,9-dimethyl-4H-pyrimido[1,2-b]pyridazin-4-one]
105% | 52 nM | [2H]C1([2H])Oc2ccc(O[C@H]3CCN(c4nn5c(=O)ccnc5cc4C)C[C@@H]3F)cc2OC1([2H])[2H] [Compound 42, 7-((3S,4S)-4-((2,3-dihydrobenzo[b][1,4]dioxin-6-yl-2,2,3,3-d4)oxy)-3-fluoropiperidin-1-yl)-8-methyl-4H-pyrimido[1,2-b]pyridazin-4-one]
96% | 28 nM | [2H]C1([2H])Oc2ccc(OC3CCN(c4nn5c(=O)cc(C(F)F)nc5c(C)c4C)CC3)cc2OC1([2H])[2H] [Compound 9, 2-(Difluoromethyl)-7-(4-((2,3-dihydrobenzo[b][1,4]dioxin-6-yl-2,2,3,3-d4)oxy)piperidin-1-yl)-8,9-dimethyl-4H-pyrimido[1,2-b]pyridazin-4-one]
90% | 162 nM | [2H]C1([2H])Oc2ccc(OC3CCN(c4nn5c(=O)ccnc5c(C)c4COC)CC3)cc2OC1([2H])[2H] [Compound 18, 7-(4-((2,3-Dihydrobenzo[b][1,4]dioxin-6-yl-2,2,3,3-d4)oxy)piperidin-1-yl)-8-(methoxymethyl)-9-methyl-4H-pyrimido[1,2-b]pyridazin-4-one]
78% | 424 nM | [2H]C1(Oc2ccc3c(c2)OC([2H])([2H])C([2H])([2H])O3)CCN(c2nn3c(=O)ccnc3c(C3CC3)c2C)CC1 [Compound 97, 9-cyclopropyl-7-(4-((2,3-dihydrobenzo[b][1,4]dioxin-6-yl-2,2,3,3-d4)oxy)piperidin-1-yl-4-d)-8-methyl-4H-pyrimido[1,2-b]pyridazin-4-one]
97% | 73 nM | [2H]C1([2H])Oc2cc(OC3CCN(c4nn5c(=O)ccnc5cc4C)CC3)cc(F)c2OC1([2H])[2H] [Compound 136, 7-(4-((8-fluoro-2,3-dihydrobenzo[b][1,4]dioxin-6-yl-2,2,3,3-d4)oxy)piperidin-1-yl)-8-methyl-4H-pyrimido[1,2-b]pyridazin-4-one]
108% | 75 nM | [2H]C1([2H])Oc2ccc(O[C@H]3CCN(c4nn5c(=O)ccnc5cc4C)C[C@H]3F)cc2OC1([2H])[2H] [Compound 112, 7-((3R,4S)-4-((2,3-dihydrobenzo[b][1,4]dioxin-6-yl-2,2,3,3-d4)oxy)-3-fluoropiperidin-1-yl)-8-methyl-4H-pyrimido[1,2-b]pyridazin-4-one]
107% | 34 nM | [2H]C1([2H])Oc2ccc(O[C@H]3CCN(c4nn5c(=O)ccnc5c(C)c4C)[C@H](C)C3)cc2OC1([2H])[2H] [Compound 132, 7-((2R,4S)-4-((2,3-dihydrobenzo[b][1,4]dioxin-6-yl-2,2,3,3-d4)oxy)-2-methylpiperidin-1-yl)-8,9-dimethyl-4H-pyrimido[1,2-b]pyridazin-4-one]
75% | 460 nM | [2H]C1([2H])Oc2ccc(OC3CCN(c4nn5c(=O)ccnc5c(COC)c4C)CC3)cc2OC1([2H])[2H] [Compound 19, 7-(4-((2,3-Dihydrobenzo[b][1,4]dioxin-6-yl-2,2,3,3-d4)oxy)piperidin-1-yl)-9-(methoxymethyl)-8-methyl-4H-pyrimido[1,2-b]pyridazin-4-one]
81% | 1700 nM | [2H]C1([2H])Oc2ccc(OC3CCN(c4nn5c(=O)ccnc5c(C)c4C4CC4)CC3)cc2OC1([2H])[2H] [Compound 105, 8-cyclopropyl-7-(4-((2,3-dihydrobenzo[b][1,4]dioxin-6-yl-2,2,3,3-d4)oxy)piperidin-1-yl)-9-methyl-4H-pyrimido[1,2-b]pyridazin-4-one]
